# Reference: PubChem BioAssay (NCI)
#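 96-well plates; 48 h exposure; 5 concentrations. Endpoints by linear interpolation between flanking doses. Not reached: highest tested concentration assigned. The concentration for full growth arrest is given as TGI.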
# Test system: A498 renal
# Experiment: inhibition of tumour cell growth, NCI panel, 48 h
row,SMILES,TGI [µM]
1,CC1=CCC(O)C=CC(C)C(O)C(C)C=C(C)C(=O)c2c(O)c(C)cc3c2C(=O)C(N)=C(NC(=O)/C=C\C=C/C=CC(C)C(O)CC1=O)C3=O (stereo unspecified),> 100
2,COc1ccc(S(=O)(=O)c2ccccc2[N+](=O)[O-])cc1,> 100
3,CCOC(=O)C1SC(=Nc2ccc(C)c(C)c2)N=C1C (stereo unspecified),> 100
4,CCCC1=C(CC)C(C(=O)Nc2c(C)cccc2C)=NC(S)N1 (stereo unspecified),> 100

# Test system: SNB-19 CNS
# Experiment: inhibition of tumour cell growth, NCI panel, 48 h
row,SMILES,TGI [µM]
1,Clc1cc(Cl)c2ns[s+]c2c1Cl,> 100
2,C=C(C)[C@H]1Cc2c(ccc3c2O[C@@H]2COc4cc(OC)c(OC)cc4[C@@H]2C3=O)O1,> 100
3,COC(=O)[C@@]12C(=O)C=CC(=O)C1C1C(=CC2C)OC2OC3(CCCCC3)OC21 (stereo partly specified),31.9
4,CC1=CCC(O)C=CC(C)C(O)C(C)C=C(C)C(=O)c2c(O)c(C)cc3c2C(=O)C(N)=C(NC(=O)/C=C\C=C/C=CC(C)C(O)CC1=O)C3=O (stereo unspecified),> 100
5,COc1ccc(S(=O)(=O)c2ccccc2[N+](=O)[O-])cc1,> 100
6,CCOC(=O)C1SC(=Nc2ccc(C)c(C)c2)N=C1C (stereo unspecified),> 100
7,CCCC1=C(CC)C(C(=O)Nc2c(C)cccc2C)=NC(S)N1 (stereo unspecified),> 100

# Test system: HS 578T breast
# Experiment: inhibition of tumour cell growth, NCI panel, 48 h
row,SMILES,TGI [µM]
1,C=C(C)[C@H]1Cc2c(ccc3c2O[C@@H]2COc4cc(OC)c(OC)cc4[C@@H]2C3=O)O1,0.488

# Test system: HL-60(TB) leukemia
# Experiment: inhibition of tumour cell growth, NCI panel, 48 h
row,SMILES,TGI [µM]
1,Clc1cc(Cl)c2ns[s+]c2c1Cl,> 100
2,C=C(C)[C@H]1Cc2c(ccc3c2O[C@@H]2COc4cc(OC)c(OC)cc4[C@@H]2C3=O)O1,0.381
3,COC(=O)[C@@]12C(=O)C=CC(=O)C1C1C(=CC2C)OC2OC3(CCCCC3)OC21 (stereo partly specified),15.7
4,CC1=CCC(O)C=CC(C)C(O)C(C)C=C(C)C(=O)c2c(O)c(C)cc3c2C(=O)C(N)=C(NC(=O)/C=C\C=C/C=CC(C)C(O)CC1=O)C3=O (stereo unspecified),38.6
5,COc1ccc(S(=O)(=O)c2ccccc2[N+](=O)[O-])cc1,> 100
6,CCOC(=O)C1SC(=Nc2ccc(C)c(C)c2)N=C1C (stereo unspecified),> 100
7,CCCC1=C(CC)C(C(=O)Nc2c(C)cccc2C)=NC(S)N1 (stereo unspecified),> 100

# Test system: LXFL 529 NSCLC
# Experiment: inhibition of tumour cell growth, NCI panel, 48 h
row,SMILES,TGI [µM]
1,Clc1cc(Cl)c2ns[s+]c2c1Cl,> 100
2,C=C(C)[C@H]1Cc2c(ccc3c2O[C@@H]2COc4cc(OC)c(OC)cc4[C@@H]2C3=O)O1,7.87
3,COC(=O)[C@@]12C(=O)C=CC(=O)C1C1C(=CC2C)OC2OC3(CCCCC3)OC21 (stereo partly specified),26.3
4,CC1=CCC(O)C=CC(C)C(O)C(C)C=C(C)C(=O)c2c(O)c(C)cc3c2C(=O)C(N)=C(NC(=O)/C=C\C=C/C=CC(C)C(O)CC1=O)C3=O (stereo unspecified),> 100
5,COc1ccc(S(=O)(=O)c2ccccc2[N+](=O)[O-])cc1,> 100
6,CCOC(=O)C1SC(=Nc2ccc(C)c(C)c2)N=C1C (stereo unspecified),> 100
7,CCCC1=C(CC)C(C(=O)Nc2c(C)cccc2C)=NC(S)N1 (stereo unspecified),> 100

# Test system: NCI-H460 lung
# Experiment: inhibition of tumour cell growth, NCI panel, 48 h
row,SMILES,TGI [µM]
1,Clc1cc(Cl)c2ns[s+]c2c1Cl,> 100
2,C=C(C)[C@H]1Cc2c(ccc3c2O[C@@H]2COc4cc(OC)c(OC)cc4[C@@H]2C3=O)O1,15.8
3,COC(=O)[C@@]12C(=O)C=CC(=O)C1C1C(=CC2C)OC2OC3(CCCCC3)OC21 (stereo partly specified),35.7
4,COc1ccc(S(=O)(=O)c2ccccc2[N+](=O)[O-])cc1,> 100
5,CCOC(=O)C1SC(=Nc2ccc(C)c(C)c2)N=C1C (stereo unspecified),> 100
6,CCCC1=C(CC)C(C(=O)Nc2c(C)cccc2C)=NC(S)N1 (stereo unspecified),> 100

# Test system: DMS 114 small cell lung
# Experiment: inhibition of tumour cell growth, NCI panel, 48 h
row,SMILES,TGI [µM]
1,C=C(C)[C@H]1Cc2c(ccc3c2O[C@@H]2COc4cc(OC)c(OC)cc4[C@@H]2C3=O)O1,0.145
2,COC(=O)[C@@]12C(=O)C=CC(=O)C1C1C(=CC2C)OC2OC3(CCCCC3)OC21 (stereo partly specified),31.4
3,CC1=CCC(O)C=CC(C)C(O)C(C)C=C(C)C(=O)c2c(O)c(C)cc3c2C(=O)C(N)=C(NC(=O)/C=C\C=C/C=CC(C)C(O)CC1=O)C3=O (stereo unspecified),> 100
4,COc1ccc(S(=O)(=O)c2ccccc2[N+](=O)[O-])cc1,> 100
5,CCOC(=O)C1SC(=Nc2ccc(C)c(C)c2)N=C1C (stereo unspecified),> 100
6,CCCC1=C(CC)C(C(=O)Nc2c(C)cccc2C)=NC(S)N1 (stereo unspecified),> 100

# Test system: SNB-75 CNS
# Experiment: inhibition of tumour cell growth, NCI panel, 48 h
row,SMILES,TGI [µM]
1,Clc1cc(Cl)c2ns[s+]c2c1Cl,> 100
2,C=C(C)[C@H]1Cc2c(ccc3c2O[C@@H]2COc4cc(OC)c(OC)cc4[C@@H]2C3=O)O1,60.5
3,COC(=O)[C@@]12C(=O)C=CC(=O)C1C1C(=CC2C)OC2OC3(CCCCC3)OC21 (stereo partly specified),33.2
4,CC1=CCC(O)C=CC(C)C(O)C(C)C=C(C)C(=O)c2c(O)c(C)cc3c2C(=O)C(N)=C(NC(=O)/C=C\C=C/C=CC(C)C(O)CC1=O)C3=O (stereo unspecified),> 100
5,COc1ccc(S(=O)(=O)c2ccccc2[N+](=O)[O-])cc1,> 100
6,CCOC(=O)C1SC(=Nc2ccc(C)c(C)c2)N=C1C (stereo unspecified),> 100
7,CCCC1=C(CC)C(C(=O)Nc2c(C)cccc2C)=NC(S)N1 (stereo unspecified),> 100

# Test system: SR leukemia
# Experiment: inhibition of tumour cell growth, NCI panel, 48 h
row,SMILES,TGI [µM]
1,Clc1cc(Cl)c2ns[s+]c2c1Cl,> 100
2,C=C(C)[C@H]1Cc2c(ccc3c2O[C@@H]2COc4cc(OC)c(OC)cc4[C@@H]2C3=O)O1,22.2
3,COc1ccc(S(=O)(=O)c2ccccc2[N+](=O)[O-])cc1,> 100
4,CCOC(=O)C1SC(=Nc2ccc(C)c(C)c2)N=C1C (stereo unspecified),> 100
5,CCCC1=C(CC)C(C(=O)Nc2c(C)cccc2C)=NC(S)N1 (stereo unspecified),> 100

# Test system: OVCAR-3 ovarian
# Experiment: inhibition of tumour cell growth, NCI panel, 48 h
row,SMILES,TGI [µM]
1,Clc1cc(Cl)c2ns[s+]c2c1Cl,> 100
2,C=C(C)[C@H]1Cc2c(ccc3c2O[C@@H]2COc4cc(OC)c(OC)cc4[C@@H]2C3=O)O1,3.05
3,COC(=O)[C@@]12C(=O)C=CC(=O)C1C1C(=CC2C)OC2OC3(CCCCC3)OC21 (stereo partly specified),33.8
4,CC1=CCC(O)C=CC(C)C(O)C(C)C=C(C)C(=O)c2c(O)c(C)cc3c2C(=O)C(N)=C(NC(=O)/C=C\C=C/C=CC(C)C(O)CC1=O)C3=O (stereo unspecified),> 100
5,COc1ccc(S(=O)(=O)c2ccccc2[N+](=O)[O-])cc1,> 100
6,CCOC(=O)C1SC(=Nc2ccc(C)c(C)c2)N=C1C (stereo unspecified),> 100
7,CCCC1=C(CC)C(C(=O)Nc2c(C)cccc2C)=NC(S)N1 (stereo unspecified),> 100

# Test system: HCC-2998 colon
# Experiment: inhibition of tumour cell growth, NCI panel, 48 h
row,SMILES,TGI [µM]
1,C=C(C)[C@H]1Cc2c(ccc3c2O[C@@H]2COc4cc(OC)c(OC)cc4[C@@H]2C3=O)O1,8.12
2,COC(=O)[C@@]12C(=O)C=CC(=O)C1C1C(=CC2C)OC2OC3(CCCCC3)OC21 (stereo partly specified),28.2
3,CC1=CCC(O)C=CC(C)C(O)C(C)C=C(C)C(=O)c2c(O)c(C)cc3c2C(=O)C(N)=C(NC(=O)/C=C\C=C/C=CC(C)C(O)CC1=O)C3=O (stereo unspecified),> 100
4,COc1ccc(S(=O)(=O)c2ccccc2[N+](=O)[O-])cc1,> 100
5,CCOC(=O)C1SC(=Nc2ccc(C)c(C)c2)N=C1C (stereo unspecified),> 100

# Test system: UO-31 renal
# Experiment: inhibition of tumour cell growth, NCI panel, 48 h
row,SMILES,TGI [µM]
1,Clc1cc(Cl)c2ns[s+]c2c1Cl,> 100
2,C=C(C)[C@H]1Cc2c(ccc3c2O[C@@H]2COc4cc(OC)c(OC)cc4[C@@H]2C3=O)O1,58.8
3,COC(=O)[C@@]12C(=O)C=CC(=O)C1C1C(=CC2C)OC2OC3(CCCCC3)OC21 (stereo partly specified),30.5
4,CC1=CCC(O)C=CC(C)C(O)C(C)C=C(C)C(=O)c2c(O)c(C)cc3c2C(=O)C(N)=C(NC(=O)/C=C\C=C/C=CC(C)C(O)CC1=O)C3=O (stereo unspecified),> 100
5,COc1ccc(S(=O)(=O)c2ccccc2[N+](=O)[O-])cc1,> 100
6,CCOC(=O)C1SC(=Nc2ccc(C)c(C)c2)N=C1C (stereo unspecified),> 100
7,CCCC1=C(CC)C(C(=O)Nc2c(C)cccc2C)=NC(S)N1 (stereo unspecified),> 100

# Test system: UACC-62 melanoma
# Experiment: inhibition of tumour cell growth, NCI panel, 48 h
row,SMILES,TGI [µM]
1,Clc1cc(Cl)c2ns[s+]c2c1Cl,> 100
2,C=C(C)[C@H]1Cc2c(ccc3c2O[C@@H]2COc4cc(OC)c(OC)cc4[C@@H]2C3=O)O1,44.7
3,COC(=O)[C@@]12C(=O)C=CC(=O)C1C1C(=CC2C)OC2OC3(CCCCC3)OC21 (stereo partly specified),29
4,CC1=CCC(O)C=CC(C)C(O)C(C)C=C(C)C(=O)c2c(O)c(C)cc3c2C(=O)C(N)=C(NC(=O)/C=C\C=C/C=CC(C)C(O)CC1=O)C3=O (stereo unspecified),> 100
5,COc1ccc(S(=O)(=O)c2ccccc2[N+](=O)[O-])cc1,> 100
6,CCOC(=O)C1SC(=Nc2ccc(C)c(C)c2)N=C1C (stereo unspecified),> 100
7,CCCC1=C(CC)C(C(=O)Nc2c(C)cccc2C)=NC(S)N1 (stereo unspecified),> 100

# Test system: M14 melanoma
# Experiment: inhibition of tumour cell growth, NCI panel, 48 h
row,SMILES,TGI [µM]
1,Clc1cc(Cl)c2ns[s+]c2c1Cl,> 100
2,C=C(C)[C@H]1Cc2c(ccc3c2O[C@@H]2COc4cc(OC)c(OC)cc4[C@@H]2C3=O)O1,24.7
3,COC(=O)[C@@]12C(=O)C=CC(=O)C1C1C(=CC2C)OC2OC3(CCCCC3)OC21 (stereo partly specified),33.6
4,CC1=CCC(O)C=CC(C)C(O)C(C)C=C(C)C(=O)c2c(O)c(C)cc3c2C(=O)C(N)=C(NC(=O)/C=C\C=C/C=CC(C)C(O)CC1=O)C3=O (stereo unspecified),> 100
5,COc1ccc(S(=O)(=O)c2ccccc2[N+](=O)[O-])cc1,> 100
6,CCOC(=O)C1SC(=Nc2ccc(C)c(C)c2)N=C1C (stereo unspecified),> 100
7,CCCC1=C(CC)C(C(=O)Nc2c(C)cccc2C)=NC(S)N1 (stereo unspecified),> 100

# Test system: SN12C renal
# Experiment: inhibition of tumour cell growth, NCI panel, 48 h
row,SMILES,TGI [µM]
1,Clc1cc(Cl)c2ns[s+]c2c1Cl,> 100
2,C=C(C)[C@H]1Cc2c(ccc3c2O[C@@H]2COc4cc(OC)c(OC)cc4[C@@H]2C3=O)O1,67.5
3,COC(=O)[C@@]12C(=O)C=CC(=O)C1C1C(=CC2C)OC2OC3(CCCCC3)OC21 (stereo partly specified),33.2
4,CC1=CCC(O)C=CC(C)C(O)C(C)C=C(C)C(=O)c2c(O)c(C)cc3c2C(=O)C(N)=C(NC(=O)/C=C\C=C/C=CC(C)C(O)CC1=O)C3=O (stereo unspecified),> 100
5,COc1ccc(S(=O)(=O)c2ccccc2[N+](=O)[O-])cc1,> 100
6,CCOC(=O)C1SC(=Nc2ccc(C)c(C)c2)N=C1C (stereo unspecified),> 100
7,CCCC1=C(CC)C(C(=O)Nc2c(C)cccc2C)=NC(S)N1 (stereo unspecified),> 100

# Test system: MDA-MB-435
# Experiment: inhibition of tumour cell growth, NCI panel, 48 h
row,SMILES,TGI [µM]
1,C=C(C)[C@H]1Cc2c(ccc3c2O[C@@H]2COc4cc(OC)c(OC)cc4[C@@H]2C3=O)O1,0.0642

# Test system: LOX IMVI melanoma
# Experiment: inhibition of tumour cell growth, NCI panel, 48 h
row,SMILES,TGI [µM]
1,Clc1cc(Cl)c2ns[s+]c2c1Cl,> 100
2,C=C(C)[C@H]1Cc2c(ccc3c2O[C@@H]2COc4cc(OC)c(OC)cc4[C@@H]2C3=O)O1,8.04
3,COC(=O)[C@@]12C(=O)C=CC(=O)C1C1C(=CC2C)OC2OC3(CCCCC3)OC21 (stereo partly specified),42.8
4,CC1=CCC(O)C=CC(C)C(O)C(C)C=C(C)C(=O)c2c(O)c(C)cc3c2C(=O)C(N)=C(NC(=O)/C=C\C=C/C=CC(C)C(O)CC1=O)C3=O (stereo unspecified),> 100
5,COc1ccc(S(=O)(=O)c2ccccc2[N+](=O)[O-])cc1,> 100
